This note sets out measurements from patent US8299049B2, “Compositions comprising an extract of Tiarella polyphylla or compounds isolated therefrom for preventing and treating cancer diseases” (Korea Institute of Bioscience and Biotechnology, priority 2007, dated 2012).

Data set [1] relates to TM4SF5-null cells (SNU449P, SNU449Cp). In words: Degree of adhesion on fibronectin-precoated dishes, TM4SF5-null cells. In kind it is cell-based. As to conditions: 20 μM TA 24 hr, reseeded on fibronectin 1 hr. The procedure:
Thus, it could be thought that TA treatment induces anoikis of TM4SF5-expressing cells. To examine whether TA treatment affected cellular adhesion, the following procedure was performed prior to analysis of TA-meditated cell death, as described in the literature (Yang, X. et al., Palmitoylation supports assembly and function of integrin-tetraspanin complexes, J Cell Biol, 167, pp. 1231-40, 2004).
Cells were treated with 20 μM TA for 24 hr, and the floating cells were collected and reseeded on fibronectin-precoated dishes for 1 hr before determination of the degree of adhesion.

In data set [2] the test system is focal adhesion kinase (FAK), paxillin, p130Cas in TM4SF5-expressing SNU449T16 cells. In words: Immunoblot of focal adhesion molecule expression and activation, SNU449T16. In kind it is cell-based. The procedure: (§1) Whole cell lysates from cells under diverse experimental conditions were prepared, as described in the literature (Lee, S. Y. et al., Focal adhesion and actin organization by a cross-talk of TM4SF5 with integrin α2 are regulated by serum treatment, Exp Cell Res, 312, pp. 2983-99, 2006). For example, cells were subjected to electroporation (950 μF, 250 V) with a control GFP, wild-type focal adhesion kinase (FAK), paxillin, p130Cas cDNA. One day after electroporation, cells were treated with TA (20 μM) for the indicated periods. Cells cultured normally or treated with TA at different concentrations for the indicated periods were harvested using RIPA buffer. Control or tumor tissues from nude mice were frozen immediately after surgery using liquid N2. Tissues in the liquid N2 was homogenized using a mortar and pestle, and extracted using 0.1% SDS containing RIPA buffer. Standard Western blots of lysates were performed by using antibody against phospho-Y^397, Y^407, Y^577, Y^861, Y^925 FAK (BioSource International, Inc., Camarillo, Calif.), phospho-Y^416Src, c-Src, p15^INK4B, p16^INK4A (Santa Cruz Biotech., Santa Cruz, Calif.), FAK, p130Cas, paxillin, pY^118paxillin, active caspase-3 (BD Transduct. Lab., San Jose, Calif.), α-tubulin (Sigma, St Louis, Mo.), phopsho-S^473, or T^308Akt, Akt, phospho-Erk1/2, Erk1/2 (Cell Signaling Tech., Danvers, Mass.), and TM4SF5 (homemade).
To examine which signaling molecule is affected by tiarellic acid (TA), the following procedure was performed, as described in the literature (Lee, S. Y. et al., Focal adhesion and actin organization by a cross-talk of TM4SF5 with integrin α2 are regulated by serum treatment, Exp Cell Res, 312, pp. 2983-99, 2006).
The SNU449 cell lines were treated with tiarellic acid (TA) in a dose- (0, 1, 5, 20 μM) and time-dependent (0, 8, 16, 24, 36 hrs) manner.
The SNU449Cp and SNU449T16 cell lines were treated with tiarellic acid (TA) at varying concentrations (0, 1, 5, 20 μM) for 24 hrs, and then immunoblot assay was performed.

For data set [3], the system named is Akt and caspase-3 in TM4SF5-expressing SNU449T16 cells. Nature of the data set: Western blotting of cell survival and death-related signaling molecules. As to conditions: various time periods. In kind it is cell-based. The procedure:
FIG. 18 is the result of Western blotting of cell survival and death-related signaling molecules, after tiarellic acid (TA) treatment for various time periods;
Whole cell lysates from cells under diverse experimental conditions were prepared, as described in the literature (Lee, S. Y. et al., Focal adhesion and actin organization by a cross-talk of TM4SF5 with integrin α2 are regulated by serum treatment, Exp Cell Res, 312, pp. 2983-99, 2006). For example, cells were subjected to electroporation (950 μF, 250 V) with a control GFP, wild-type focal adhesion kinase (FAK), paxillin, p130Cas cDNA. One day after electroporation, cells were treated with TA (20 μM) for the indicated periods. Cells cultured normally or treated with TA at different concentrations for the indicated periods were harvested using RIPA buffer. Control or tumor tissues from nude mice were frozen immediately after surgery using liquid N2. Tissues in the liquid N2 was homogenized using a mortar and pestle, and extracted using 0.1% SDS containing RIPA buffer. […]

Data set [4] concerns TM4SF5-null cells including Hek293 and COST fibroblast, MDA-MB-453 breast, SNU638 and SNU668 stomach, and SNU398 liver epithelial cells. Nature of the data set: Cell number of diverse cell lines without TM4SF5 after TA treatment. Particulars: TA 5 or 20 μM. In kind it is cell-based. How it is done:
After virus infection, pooled stable clones (control SNU449Cp and TM4SF5-expressing SNU449Tp cell clones) and single cell-driven stable clones (TM4SF5-expressing SNU449T16) were prepared by infecting SNU449 hepatocytes (Korean Cell Bank, Seoul, Korea) with retrovirus for empty pLNCX or pLNCX with TM4SF5. Parental and control cells (Cp) were maintained in RPMI-1640/10% FBS/0.25 μg/ml gentamycin (Calbiochem, San Diego, Calif.) without or with 200 μg/ml G418 (A.G. Scientific Inc., San Diego, Calif.), respectively, at 37° C. and 5% CO2. Cells endogenously expressing TM4SF5 or cells endogenously expressing no TM4SF5 (Korean Cell Bank) were maintained in either DMEM-H or RPMI-1640 media with 10% FBS (JBI Inc., Daegu, Korea).
Next, to confirm that tiarellic acid (TA) is specific to TM4SF5, cytotoxicity of tiarellic acid (TA) was examined using cells with endogenous TM4SF5 expression. RT-PCR was performed using a primer set described in the following Table 1 under the conditions including 30 cycles of 94° C. for 30 sec, 55° C. for 30 sec, and 72° C. for 30 sec. Diverse cell lines were treated with tiarellic acid (TA) at a concentration of 5 or 20 μM.

Data set [5] relates to focal adhesion molecules in TM4SF5-expressing SNU449Tp cell line. In words: Immunoblot of focal adhesion molecule expression and activation, SNU449Tp. In kind it is cell-based. As to conditions: FIG. 11. How it is done:
as §1, with “(homemade). […]” for “(homemade).”

Data set [6] can be described thus: Body weight and toxic side effects in tumor-bearing nude mice. As to conditions: 3 or 30 mg/kg i.p. every other day, 30 days. Type of data set: in vivo. How it is done:
(§2) 4-5 week old female nude mice (BALB/cAnNCrjBgi-nu) were purchased from Orient. Co. Ltd. (Seongnam, Korea). The mice were housed in a specific pathogen-free room under controlled temperature and humidity. All animal procedures were performed in accordance with the procedures in Seoul National University Laboratory Animal Maintenance Manual and with IRB agreement. Mice aged 5-6 weeks were injected subcutaneously with 5×10^6 viable SNU449Cp or SNU449T16 cells. Tumor volumes were measured with a caliper and calculated using the following Mathematical Formula 1. When the tumor volume reached 200 mm^3, mice were injected intraperitoneally with 3 mg/kg or 30 mg/kg (body weight) of tiarellic acid (TA) every other day for 30 days. (Width×Length^2)/2 [Mathematical Formula 1]
(§3) To evaluate whether tiarellic acid (TA) administration might interfere with TM4SF5 mediated tumor formation in nude mice, the following experiment was performed as described in the literature (Lee S-A et al., TM4SF5-mediated transmodulation between cytosolic p27Kip1 and Rho GTPases and epithelial-mesenchymal transition cause loss of contact inhibition, Cancer Cell, 2007).

For data set [7], the system named is Akt, p15INK4B, p16INK4A, caspase-3 in TM4SF5-mediated tumor tissue. In words: Western blot and immunohistochemical staining of tumor tissue from nude mice. In kind it is in vivo. The procedure: as §1, §2, §3
Data set [8] deals with focal adhesion molecules in cells that express endogenous TM4SF5. In words: Focal adhesion molecule activation in cells endogenously expressing TM4SF5. Particulars: FIG. 12. In kind it is cell-based. The procedure:
as §1

The mark [9] stands for this setting: Western blot, TA administration.

For the compound `C=C(C)C1CC[C@]2(C)CC[C@]3(C(=O)O)C(CCC4[C@@]5(C)CC[C@H](O)[C@@](C)(CO)C5CC[C@]43C)C12` (stereo partly drawn) [tiarellic acid (TA), 3,23-dihydroxy-20(29)-lupen-27-oic acid], the adhesion entry in data set [1] is on record as “not affected”. Also, in data set [2] (FIG. 10, cell line not stated), the “p130Cas phosphorylation and physical association among FAK, p130Cas, and paxillin” value is given as “decreased”. In addition, the “FAK and paxillin phosphorylation and p130Cas protein levels over time” value in data set [2] (SNU449T16, 20 μM TA, 0, 8, 16, 24, 36 hrs) is reported as “remarkably decreased in a time-dependent manner”. The “FAK and paxillin phosphorylations and p130Cas protein levels” value in data set [2] (SNU449T16, 20 μM TA, 24 hrs) is listed as “reduced”. Moreover, the “Akt and caspase-3 activity” value in data set [3] is “Akt inactivation and caspase-3 activation”. For the same compound, the “proliferation of TM4SF5-null cells” value in data set [4] is “not affected”. Besides, in data set [5], the “TM4SF5-dependent inhibitory effects on focal adhesion molecules” value is given as “inhibitory effects” and the pErk1/2 entry was “slightly increased”. In data set [6], the body weight entry is “increased normally” and the toxic side effects entry was “no significant toxic side effects”. Further, in data set [7] (setting [9]), the “Akt activation in tumor tissue” value is recorded as “decreased”, the “caspase-3 activation in tumor tissue” value is “enhanced” and the “p15INK4B or p16INK4A CKI levels in tumor tissue” value is recorded as “increased”. In data set [7] (tumor tissue from TA-treated mice), the “immunohistochemical staining for active caspase-3” value was “positive”. For the same compound, the “inhibitory effects on focal adhesion molecule activation” value in data set [8] is “observed”.
